{"source": "patent US11766478B2", "about": "“Methods for enhancing antigen-specific immune responses” (priority 2015, dated 2023)", "tested_on": "TC-1 tumors", "test": "In vivo tumor treatment experiment, TC-1 tumor-bearing mice (tumor volume, survival)", "design": "species or system C57BL/6 mice", "details": "combinatorial treatment with cisplatin; compared to cisplatin alone", "method": "Left panel is representative flow cytometry analysis. […] IgG antibody was used as a control. […] Left panel is representative flow cytometry.\nFor in vivo tumor treatment experiment using only protein, 1×10^5 TC-1 cells were injected subcutaneously into C57BL/6 mice (10 per group). After 3 days, 100 μg of each protein was injected intravenously three times with 3 day intervals. Mice were monitored for tumor growth by palpation and inspection twice a week. For in vivo combined tumor treatment experiments, 1×10^5 TC-1 cells or 5×10^5 CT 26 cells were subcutaneously injected into C57BL/6 mice (10 per group) or BALB/c mice. After 5 days, cisplatin (5 mg/kg) or saline (control) was intraperitoneally injected two times at a 3 day interval. 6 days after tumor challenge, mice received 100 μg of protein each, intravenously injected three times with 3 day intervals.", "data": [{"substance": "AnnexinV: Annexin V protein alone, purified from E. coli, used as control", "values": [{"measurement": "therapeutic anti-tumor effect in TC-1 tumor bearing mice", "result": "did not generate a significantly better therapeutic anti-tumor effect"}]}]}
